Measurements as given in the CheMixHub viscosity set.

Assay: xn = mol fraction of the nth substance listed

O=C(c1ccccc1)c1ccc2n1CCC2C(=O)[O-].[NH3+]C(CO)(CO)CO (stereo not given) + O
viscosity [mPa·s], 101 kPa
Conditions | 293.15 K | 298.15 K | 303.15 K | 308.15 K | 313.15 K
x1 = 0.0002 | 1.037 | 0.9251 | 0.8319 | 0.7538 | 0.688
x1 = 0.0007 | 1.071 | 0.9598 | 0.8666 | 0.7882 | 0.723
x1 = 0.001 | 1.105 | 0.9936 | 0.9005 | 0.822 | 0.7569

ClC(Cl)=C(Cl)Cl + C1COCCO1
303.15 K, 101.33 kPa
Conditions | viscosity [mPa·s]
x2 = 0.0711 | 0.8321
x2 = 0.1527 | 0.8661
x2 = 0.2465 | 0.8991
x2 = 0.3656 | 0.9331
x2 = 0.4126 | 0.9447
x2 = 0.5332 | 0.9725
x2 = 0.6532 | 0.9982
x2 = 0.7921 | 1.03
x2 = 0.8937 | 1.055
x2 = 0.9581 | 1.074

ClC(Cl)=C(Cl)Cl + ClC(Cl)(Cl)Cl
Conditions | viscosity [mPa·s]
298.15 K, 101 kPa, x2 = 0.0973 | 0.8311
298.15 K, 101 kPa, x2 = 0.1594 | 0.8241
298.15 K, 101 kPa, x2 = 0.244 | 0.8182
298.15 K, 101 kPa, x2 = 0.3103 | 0.8153
298.15 K, 101 kPa, x2 = 0.4139 | 0.813
298.15 K, 101 kPa, x2 = 0.4636 | 0.8122
298.15 K, 101 kPa, x2 = 0.5633 | 0.814
298.15 K, 101 kPa, x2 = 0.63 | 0.8216
298.15 K, 101 kPa, x2 = 0.6339 | 0.8211
298.15 K, 101 kPa, x2 = 0.7582 | 0.8392
298.15 K, 101 kPa, x2 = 0.8067 | 0.8482
298.15 K, 101 kPa, x2 = 0.9135 | 0.8744
303.15 K, 101.33 kPa, x1 = 0.3238 | 0.818
303.15 K, 101.33 kPa, x1 = 0.402 | 0.814
303.15 K, 101.33 kPa, x1 = 0.56 | 0.808
303.15 K, 101.33 kPa, x1 = 0.6543 | 0.801
303.15 K, 101.33 kPa, x1 = 0.7629 | 0.8
303.15 K, 101.33 kPa, x1 = 0.8308 | 0.798
303.15 K, 101.33 kPa, x1 = 0.9128 | 0.797

ClC(Cl)=C(Cl)Cl + Clc1ccccc1
303.15 K, 101 kPa
Conditions | viscosity [mPa·s]
x1 = 0.1416 | 0.716
x1 = 0.2048 | 0.717
x1 = 0.2727 | 0.718
x1 = 0.3562 | 0.72
x1 = 0.4651 | 0.728
x1 = 0.5412 | 0.739
x1 = 0.6279 | 0.751
x1 = 0.718 | 0.766
x1 = 0.8422 | 0.786
x1 = 0.9302 | 0.802

CCCCCCCCCCCCCC + CCCOC(C)=O
298.15 K, 101.33 kPa
Conditions | viscosity [mPa·s]
x1 = 0.066 | 0.605
x1 = 0.0941 | 0.632
x1 = 0.1299 | 0.673
x1 = 0.1877 | 0.734
x1 = 0.2573 | 0.815
x1 = 0.3129 | 0.88
x1 = 0.4379 | 1.045
x1 = 0.5495 | 1.204
x1 = 0.6576 | 1.369
x1 = 0.8073 | 1.631
x1 = 0.8924 | 1.814
